From patent US20090298825A1, “Bicycloheteroaryl Compounds as P2x7 Modulators and Uses Thereof” (priority 2006, published 2009) come the findings set out here.

Structures are written as SMILES. Like-named read-outs stand apart in the source and are kept apart here.

One data set deals with T1, P2X7 receptor (Homo sapiens, UniProt Q99572).
T1 construct: endogenous in cells; host or cells: THP-1 cells differentiated with LPS and IFN-γ
T1 sequence (Q99572 1-595): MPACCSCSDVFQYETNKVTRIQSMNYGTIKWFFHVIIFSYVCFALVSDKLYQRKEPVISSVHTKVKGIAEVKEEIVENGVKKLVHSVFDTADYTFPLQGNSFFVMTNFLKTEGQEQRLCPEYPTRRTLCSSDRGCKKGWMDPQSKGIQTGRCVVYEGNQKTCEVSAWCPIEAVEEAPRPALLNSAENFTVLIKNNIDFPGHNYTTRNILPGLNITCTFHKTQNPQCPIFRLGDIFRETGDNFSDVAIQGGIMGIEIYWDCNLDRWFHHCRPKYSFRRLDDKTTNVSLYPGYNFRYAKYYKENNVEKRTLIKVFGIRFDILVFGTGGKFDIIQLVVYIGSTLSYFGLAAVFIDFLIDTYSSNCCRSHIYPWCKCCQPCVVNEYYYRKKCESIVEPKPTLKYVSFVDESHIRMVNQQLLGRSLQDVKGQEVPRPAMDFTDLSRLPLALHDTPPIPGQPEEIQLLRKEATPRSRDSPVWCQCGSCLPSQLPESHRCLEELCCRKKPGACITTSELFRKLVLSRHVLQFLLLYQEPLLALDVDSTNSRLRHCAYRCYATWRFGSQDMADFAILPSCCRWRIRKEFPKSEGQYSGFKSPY
Put plainly: IL-1β release assay in differentiated THP-1 cells stimulated with BzATP (Example 9). Format: cell-based. To be noted: for inhibition at 0.3 µM: 0.3 μM concentration; for inhibition at 0.3 µM / inhibition at 0.1 µM: read-out: IL-1β % Inhib. @ 0.3 or 0.1 μM; for IC50: four parameter logistic fit; for inhibition at 0.1 µM: 0.1 μM concentration. Put shortly: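 Differentiated THP-1 cells pretreated 30 min with compound, then stimulated with BzATP. Released IL-1β in supernatant measured by ELISA; background-adjusted percent inhibition fitted to four-parameter logistic for IC50.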

Data set [1] is described as follows: Half-life in human liver microsomes (HLM). The format is in vitro ADME. The note with it: pH 7.4, 1 μM compound, 0.78 mg/mL HLM, NADPH, 37° C.
Experimental: Test compounds (1 μM) are incubated with 3.3 mM MgCl2 and 0.78 mg/mL HLM (HL101) in 100 mM potassium phosphate buffer (pH 7.4) at 37° C. on the 96-deep well plate. The reaction mixture is split into two groups, a non-P450 and a P450 group. NADPH is only added to the reaction mixture of the P450 group. An aliquot of samples of P450 group is collected at 0, 10, 30, and 60 min time point, where 0 min time point indicated the time when NADPH is added into the reaction mixture of P450 group. An aliquot of samples of non-P450 group is collected at −10 and 65 min time point. Collected aliquots are extracted with acetonitrile solution containing an internal standard. The precipitated protein is spun down in centrifuge (2000 rpm, 15 min). The compound concentration in supernatant is measured by LC/MS/MS system.
The half-life value is obtained by plotting the natural logarithm of the peak area ratio of compounds/internal standard versus time. The slope of the line of best fit through the points yields the rate of metabolism (k).

Take `Cc1ncccc1-n1ccc2c(NC(=O)Cc3ccc(Cl)c(C(F)(F)F)c3)cccc2c1=O` [ID 861]: the inhibition at 0.3 µM on P2X7 receptor was greater than 76%. Also, the IC50 at P2X7 receptor (read-out: IL-1β IC50) is 4 nM. Also, the half-life at 1 μM in data set [1] was 0.49 h.

For `Cc1ncccc1-n1ccc2c(NC(=O)Cc3ccc(C(F)(F)F)c(F)c3)cccc2c1=O` [ID 855], on P2X7 receptor, the inhibition at 0.3 µM was greater than 76%. Besides, on P2X7 receptor (read-out: IL-1β IC50), the half-inhibitory concentration (IC50) stood at 11 nM. In data set [1], this molecule showed a half-life at 1 μM of 0.73 h.

On to `COc1ncccc1-n1ccc2c(NC(=O)Cc3ccc(Cl)c(C(F)(F)F)c3)cccc2c1=O` [ID 847], for which the inhibition at 0.3 µM at P2X7 receptor is greater than 76%. For the same molecule, the IC50 on P2X7 receptor (read-out: IL-1β IC50) was 9.37 nM. In data set [1], the half-life at 1 μM is 0.22 h.

Take `Cc1ccc(-n2ccc3c(NC(=O)CC45CC6CC(CC(C6)C4)C5)cccc3c2=O)cn1` [ID 715]: on P2X7 receptor, the inhibition at 0.3 µM was greater than 76%. Moreover, the half-maximal inhibitory concentration (IC50) at P2X7 receptor (read-out: IL-1β IC50) worked out at 4.02 nM. Moreover, the half-life at 1 μM in data set [1] was 0.42 h.

As for `CC1(C)CC(CC(=O)Nc2cccc3c(=O)n([C@@H]4CCNC4)ccc23)CC(C)(C)C1` [ID 830], the inhibition at 0.3 µM on P2X7 receptor is greater than 76%. Moreover, the half-life at 1 μM in data set [1] was 5.59 h.

For `O=C(Cc1ccc(Cl)c(C(F)(F)F)c1)Nc1cccc2c(=O)n([C@H]3CCNC3)ccc12` [ID 825], on P2X7 receptor, the inhibition at 0.3 µM was greater than 76%. Also, the IC50 at P2X7 receptor (read-out: IL-1β IC50) turned out to be 16.4 nM. The half-life at 1 μM in data set [1] is 4.27 h.

Take `O=C(Cc1ccc(C(F)(F)F)c(F)c1)Nc1cccc2c(=O)n(-c3cccnc3F)ccc12` [ID 871]: at P2X7 receptor, the inhibition at 0.3 µM was greater than 76%. Besides, on P2X7 receptor (read-out: IL-1β IC50), the IC50 stood at 8.72 nM. The half-life at 1 μM in data set [1] was 1.08 h.

`O=C(CC1CCCCCC1)Nc1cccc2c(=O)n(C3CNCC3O)ccc12` (stereo not shown) [ID 828]: the inhibition at 0.3 µM at P2X7 receptor was greater than 76%. The IC50 on P2X7 receptor (read-out: IL-1β IC50) worked out at 6.87 nM. Further, the half-life at 1 μM in data set [1] was 1.38 h.

For `O=C(Cc1ccc(Cl)c(C(F)(F)F)c1)Nc1cccc2c(=O)n(C3CCNC3)ccc12` (stereo not shown) [ID 814], the inhibition at 0.3 µM on P2X7 receptor is greater than 76%. The half-inhibitory concentration (IC50) at P2X7 receptor (read-out: IL-1β IC50) amounted to 15.9 nM. The molecule further gave a half-life at 1 μM in data set [1] of 2.88 h.

Regarding `O=C(Cc1ccc(F)c(C(F)(F)F)c1)Nc1cccc2c(=O)n(C3CC3)ccc12` [ID 884], the inhibition at 0.3 µM on P2X7 receptor is greater than 76%. Moreover, on P2X7 receptor (read-out: IL-1β IC50), the IC50 came out at 5.37 nM. In addition, the half-life at 1 μM in data set [1] was 0.77 h.

Take `C[C@H](C(=O)Nc1cccc2c(=O)n(C3CNCC3O)ccc12)c1ccc(Cl)cc1` (stereo partly shown) [ID 829]: the inhibition at 0.3 µM at P2X7 receptor is greater than 76%. Also, the IC50 at P2X7 receptor (read-out: IL-1β IC50) came out at 19.9 nM. The same molecule showed a half-life at 1 μM in data set [1] of 1.54 h.

Turning to `O=C(Cc1ccc(Cl)c(C(F)(F)F)c1)Nc1cccc2c(=O)n(C3CNCC3O)ccc12` (stereo not shown) [ID 826], on P2X7 receptor, the inhibition at 0.3 µM is greater than 76%. Also, the IC50 at P2X7 receptor (read-out: IL-1β IC50) is 2.44 nM. The half-life at 1 μM in data set [1] was 1.85 h.

In the case of `O=C(Cc1ccc(C(F)(F)F)cc1F)Nc1cccc2c(=O)n(C3CCC3)ccc12` [ID 887], the inhibition at 0.3 µM on P2X7 receptor was greater than 76%. Besides, the IC50 on P2X7 receptor (read-out: IL-1β IC50) was 28.5 nM.

As for `CCOC(=O)N1CCC(n2ccc3c(NC(=O)CCc4cccc(Cl)c4)cccc3c2=O)CC1` [ID 811], at P2X7 receptor, the inhibition at 0.1 µM was in the range of 0 to 25%.

`C[C@@H](C(=O)Nc1cccc2c(=O)n([C@H]3CCNC3)ccc12)c1ccc(Cl)c(Cl)c1` [ID 833]: at P2X7 receptor, the inhibition at 0.3 µM was greater than 76%. Further, the IC50 at P2X7 receptor (read-out: IL-1β IC50) is 35 nM. In data set [1], this molecule showed a half-life at 1 μM of 3.62 h.

In the case of `Cc1cc(-n2ccc3c(NC(=O)CCc4cccc(Cl)c4)cccc3c2=O)no1` [ID 746], the inhibition at 0.1 µM on P2X7 receptor lay in the range of 51 to 75%.

As for `Cc1cccc(C(=O)Nc2cccc3c(=O)n(-c4cc(C)on4)ccc23)c1` [ID 723], on P2X7 receptor, the inhibition at 0.1 µM was in the range of 0 to 25%.

Turning to `Cc1ncccc1-n1ccc2c(NC(=O)Cc3ccc(F)c(F)c3F)cccc2c1=O` [ID 867], at P2X7 receptor, the inhibition at 0.3 µM is greater than 76%. Moreover, at P2X7 receptor (read-out: IL-1β IC50), the IC50 was found to be 40.5 nM.

`Cc1ncccc1-n1ccc2c(NC(=O)Cc3ccc(C(F)(F)F)cc3)cccc2c1=O` [ID 851]: the inhibition at 0.3 µM on P2X7 receptor is greater than 76%. At P2X7 receptor (read-out: IL-1β IC50), the IC50 amounted to 147 nM.

As for `O=C(CC12CC3CC(CC(C3)C1)C2)Nc1cccc2c(=O)n(-c3cccnc3Oc3ccccc3F)ccc12` [ID 714], the inhibition at 0.3 µM at P2X7 receptor is greater than 76%. Further, the IC50 on P2X7 receptor (read-out: IL-1β IC50) turned out to be 4.09 nM.

For the molecule `O=C(CC12CC3CC(CC(C3)C1)C2)Nc1cccc2c(=O)n(C3CN4CCC3CC4)ccc12` (stereo not shown) [ID 850], the inhibition at 0.3 µM at P2X7 receptor was greater than 76%. This molecule also displayed an IC50 on P2X7 receptor (IL-1β IC50 (nM)) of 1.88 nM.

On to `CCOC(=O)N1CCC(n2ccc3c(NC(=O)c4ccc(Cl)cc4C)cccc3c2=O)CC1` [ID 794], for which the inhibition at 0.1 µM at P2X7 receptor fell in the range of 0 to 25%.

Consider `Cc1cc(-n2ccc3c(NC(=O)CCc4ccccc4Cl)cccc3c2=O)no1` [ID 718], for which, at P2X7 receptor, the inhibition at 0.1 µM fell in the range of 0 to 25%.

Consider `Cc1ccc(Oc2ncccc2-n2ccc3c(NC(=O)CC45CC6CC(CC(C6)C4)C5)cccc3c2=O)c2c1CCC2` [ID 708], for which, at P2X7 receptor, the inhibition at 0.3 µM is greater than 76%. Further, on P2X7 receptor (read-out: IL-1β IC50), the half-inhibitory concentration (IC50) came to 26.2 nM.

Consider `O=C(Cc1ccc(Cl)c(Cl)c1)Nc1cccc2c(=O)n([C@H]3CCNC3)ccc12` [ID 822], for which, at P2X7 receptor, the inhibition at 0.3 µM was greater than 76%. Also, on P2X7 receptor (read-out: IL-1β IC50), the half-inhibitory concentration (IC50) is 31.3 nM.

With `CCOC(=O)N1CCC(n2ccc3c(NC(=O)Cc4ccccc4OC)cccc3c2=O)CC1` [ID 779], the inhibition at 0.1 µM at P2X7 receptor lay within 0 to 25%.

`COc1ccc(CC(=O)Nc2cccc3c(=O)n(-c4cc(C)on4)ccc23)cc1` [ID 732]: the inhibition at 0.1 µM on P2X7 receptor lay in the range of 0 to 25%.

Regarding `O=C(Cc1ccc(Cl)cc1F)Nc1cccc2c(=O)n(C3CC3)ccc12` [ID 883], at P2X7 receptor, the inhibition at 0.3 µM is greater than 76%. Also, the concentration for half-maximal inhibition (IC50) on P2X7 receptor (read-out: IL-1β IC50) stood at 14.7 nM. The molecule also gave a half-life at 1 μM in data set [1] of 0.54 h.

Turning to `O=C(CC1(O)CCCCCC1)Nc1cccc2c(=O)n(C3CCNCC3)ccc12` [ID 813], the inhibition at 0.3 µM on P2X7 receptor is 0 to 25%. For the same molecule, at P2X7 receptor (read-out: IL-1β IC50), the half-maximal inhibitory concentration (IC50) amounted to 760 nM.

Consider `O=C(CC1CCCCCC1)Nc1cccc2c(=O)n(C3CCNCC3)ccc12` [ID 819], for which the inhibition at 0.3 µM at P2X7 receptor lay within 51 to 75%. Moreover, on P2X7 receptor (read-out: IL-1β IC50), the IC50 worked out at 206 nM.

Regarding `CC(C(=O)Nc1cccc2c(=O)n(-c3cc[nH]n3)ccc12)C1CCCCCC1` (stereo not shown) [ID 843], the inhibition at 0.3 µM on P2X7 receptor is greater than 76%. Further, the IC50 on P2X7 receptor (read-out: IL-1β IC50) was determined as 12.2 nM.

In the case of `CCOC(=O)N1CCC(n2ccc3c(NC(=O)CCc4ccccc4Cl)cccc3c2=O)CC1` [ID 758], the inhibition at 0.1 µM at P2X7 receptor fell in the range of 0 to 25%.

Take `CC(C(=O)Nc1cccc2c(=O)n([C@H]3CCNC3)ccc12)c1ccc(Cl)cc1` (stereo partly shown) [ID 823]: the inhibition at 0.3 µM on P2X7 receptor was greater than 76%. Besides, the 50% inhibitory concentration (IC50) at P2X7 receptor (read-out: IL-1β IC50) came out at 42.5 nM.

As to `CCOC(=O)N1CCC(n2ccc3c(NC(=O)c4ccc(OC)c(Cl)c4)cccc3c2=O)CC1` [ID 756], the inhibition at 0.1 µM at P2X7 receptor lay in the range of 0 to 25%.

Take `CCOC(=O)N1CCC(n2ccc3c(NC(=O)c4cc(C)c(OC)c(C)c4)cccc3c2=O)CC1` [ID 792]: the inhibition at 0.1 µM on P2X7 receptor lay within 0 to 25%.

Turning to `O=C(Cc1ccc(C(F)(F)F)cc1C(F)(F)F)Nc1cccc2c(=O)n(C3CC3)ccc12` [ID 880], the inhibition at 0.3 µM on P2X7 receptor is greater than 76%. In addition, the IC50 at P2X7 receptor (read-out: IL-1β IC50) turned out to be 67.8 nM.

For `CCOC(=O)N1CCC(n2ccc3c(NC(=O)Cc4ccc(OC)c(C)c4)cccc3c2=O)CC1` [ID 806], the inhibition at 0.1 µM at P2X7 receptor is 0 to 25%.

For orientation: IC50 means the point on the concentration scale where inhibition reaches its midpoint. As usually defined, the half-life is the time needed for the level to fall by half in the phase considered.
